Measurements from ChEMBL document CHEMBL3507680, “University of Dundee, Gates Library screen for HepG2 cell viability”.

Experiment: Human HepG2 cell viability assay in 384 well format
Type: toxicity, cell-based
Design: dose 125 nL, time 70.5 hour; concentration not given beside the values
Settings: HepG2 cells, read-out: Inhibition

Compound | cytotoxicity at 70.5 h
Fc1ccc(Sc2ccccc2CNC2=NCCN2)cc1 | -5.29%
O=c1ncn(-c2ccccc2F)c2ncccc12 | -5.32%
Fc1ccccc1Sc1ccccc1CNC1=NCCN1 | -0.773%
CCOC(=O)c1cnn(-c2cc(Oc3cccc(C)c3)ncn2)c1N | -0.773%
NC(=O)Cn1cnc2nc3n(c2c1=O)CCC3 | 16.5%
CCC1CCc2c(c3ccccc3[nH]c2=O)O1 (centres undefined) | 24.6%
CN(C(=O)c1cccc(C#N)c1)c1nnc(C2CCOC2)s1 (centres undefined) | -7.42%
CC1CCc2c(c3ccccc3[nH]c2=O)O1 (centres undefined) | -6.86%
CCn1cc(C(=O)Nc2ccccc2C(=O)OC)cn1 | 13.1%
Cn1c(=O)c2c(c3ccccc31)OC(C)(C)CC2 | -9.34%
Cn1c2c(c(=O)c3ccccc31)CCC(C)(C)O2 | -9.34%
O=C1CC(c2ccc(O)cc2)c2sc(C(=O)O)c(-c3ccccc3)c2N1 (centres undefined) | -16.3%
CC(=O)c1cccc(NC(=O)Cn2cc(-c3ccccc3)ncc2=O)c1 | -6.47%
O=C(Cn1cc(-c2ccccc2)ncc1=O)NC1CCCCC1 | 5.64%
Cn1c(=O)[nH]c(=O)c2c1nc1n2CC(c2ccc(Cl)cc2)O1 (centres undefined) | 43%
Cc1cc(O)n(-c2ccccc2Cl)c(=O)c1C#N | -0.226%
O=C(Nc1ccc(I)cc1C(=O)NCCN1CCOCC1)c1cccs1 | 11.1%
CC(=O)c1c(C)nn(S(=O)(=O)c2ccc(C)c(C)c2)c1C | -0.468%
CC(=O)c1c(C)nn(S(=O)(=O)c2ccc(Cl)cc2)c1C | 3.92%
CCOC1Sc2nnc(C)n2N=C1c1ccc(Br)cc1 (centres undefined) | -8.58%
CC(=O)c1c(O)n(C)c2ccc(C)cc12 | 1.11%
O=C(CCn1ccnc1)N1CC[C@H](Oc2cccc(F)c2)[C@@H](O)CC1 | 28.5%
COc1cccc(O[C@H]2CCN(c3nc(C)cc(C)n3)CC[C@@H]2O)c1 | 20.4%

Compound | cytotoxicity at 70.5 h
O=C1CN([C@@H]2CC[C@@H](NS(=O)(=O)c3ccccc3F)[C@H]2O)CCN1 | 25.1%
Cn1ccc(C(=O)N2CCCC2c2cc[nH]n2)n1 (centres undefined) | 25.1%
Fc1ccccc1CN1CCC[C@H](Cn2nnc(-c3cccs3)n2)C1 | -0.999%
COc1ccccc1NC(=O)c1cnc(C2CCN(C(C)=O)C2)nc1C (centres undefined) | -1.01%
O=C1CN([C@@H]2CC[C@@H](NS(=O)(=O)c3ccc(F)cc3)[C@H]2O)CCN1 | 4.31%
CC(C)n1nccc1CN1Cc2nccn2CC1c1ccccc1 (centres undefined) | -7.71%
CC(=O)N1CCC(Cc2ccc(-c3ccnn3C)nc2)CC1 | -7.13%
CC(=O)N[C@@H]1CN(C(=O)c2cccc(C(F)(F)F)c2)C[C@H]1O | -4.74%
CC1(c2ncc(CN3CCOCC3)cn2)CCCCO1 (centres undefined) | -1.05%
CC(C)c1cc(C(=O)N[C@@H]2CC[C@@H](Oc3ccccc3)[C@@H]2O)on1 | -3.21%
Cc1ccccc1S(=O)(=O)N[C@@H]1CC[C@@H](N2CCNC(=O)C2)[C@@H]1O | -4.42%
O=C(c1cnccn1)N1CCCC(C2=Nc3ccccc3S(=O)(=O)N2)C1 (centres undefined) | -6.36%
Cc1ccc(-c2noc(C3CCN3C(=O)c3ccn(C)n3)n2)s1 (centres undefined) | 1.02%
Cc1cccc(-c2nccnc2C2CCCN(C)C2)c1 (centres undefined) | -2.49%
COCC(=O)N1CCCC1(C(=O)N(C)C)c1cnccn1 (centres undefined) | -4.12%
C=C(C)Cn1nc(C)c(CN2CCN(C3CCCCC3)C(=O)C2)c1C | 1.66%
Cc1nc(-c2ccnn2C)cc(C2CCCN(S(C)(=O)=O)C2)n1 (centres undefined) | -6.24%
CNc1ccc(C2CN(c3nc(C)cc(C)n3)CCO2)nc1 (centres undefined) | -2.83%
CC(=O)N1CCCC1CCc1ccnc(-c2cncnc2)c1 (centres undefined) | -2.53%
CCOc1ccc(CN2CCOCC2c2[nH]ncc2C)cc1CO (centres undefined) | -2.3%
CNC(=O)C1(C)CN(S(=O)(=O)c2cccc(OC)c2)CCO1 (centres undefined) | 22.5%
O=C(Cn1cccn1)N1CCC(c2nnc(-c3ccsc3)o2)CC1 | -4.75%
CNc1ccc(C2CN(c3cc(C)nc(N)n3)CCO2)nc1 (centres undefined) | -2.26%

Compound | cytotoxicity at 70.5 h
CC1CCN(c2ncc(-c3ccccc3F)c(-c3nccn3C)n2)CC1 | -2.25%
CC(C)NC(=O)C1(Cc2ccccc2-c2cncnc2)CCCNC1 (centres undefined) | -4.61%
COc1cccc(S(=O)(=O)N2CCOC(C)(C(N)=O)C2)c1 (centres undefined) | -3.76%
Cc1nc2cc(C3CCOCC3)nn2c(NCC2COCCO2)c1C (centres undefined) | 20.9%
O=C(c1cnco1)N1CCC(Cc2ccc3ncccc3c2)CC1 | 5.02%
CN1CCc2nc(C3CCCN(S(=O)(=O)N4CCCC4)C3)ncc2C1 (centres undefined) | 0.156%
CN(C)C(=O)c1cncnc1-c1ccc(CNC(=O)C2CC2)cc1 | -11.4%
CC(NC(=O)C1CC1)c1cc(O)nc(-c2cccnc2)n1 (centres undefined) | 26.9%
CS(=O)(=O)N1CCCCCC1c1cc(-c2ccc(F)cc2)no1 (centres undefined) | 5.67%
CN1C[C@]2(CC[C@@H](C(=O)O)CC2)Oc2ccccc2C1=O | -6.54%
CCCC(=O)NCCc1nc2cc(-c3ccc(OC)cc3)ncn2n1 | -8.47%
Cc1ccc(CN2CCOCC2c2[nH]ncc2C)cn1 (centres undefined) | -7.81%
Cc1cn[nH]c1C1COCCN1Cc1cscn1 (centres undefined) | -13.2%
CC1(c2ncc(CN3CCN(c4ncccn4)CC3)cn2)CCCCO1 (centres undefined) | -9.22%
COc1ccc(CCc2nnc(NC(=O)C3CC34CCC4)s2)cc1OC (centres undefined) | -8.17%
CCc1nnc(Nc2cc(C)nc(C3CN(C(C)=O)CCO3)c2)s1 (centres undefined) | 0.483%
CS(=O)(=O)N1CCCC1c1ccnc2nccn12 (centres undefined) | -12.2%
Cc1noc(C)c1-c1cccc(C2CCN(S(=O)(=O)N(C)C)CC2)n1 | 2.89%
Cc1ncc(C(=O)N2CCOC(C(=O)N3CCCCC3)C2)c(C)n1 (centres undefined) | -3.05%
Cc1cccc(C2(CNC(=O)c3ccnc(N(C)C)c3)CCOCC2)c1 | 15.5%
Cc1onc(-c2ccncc2)c1C(=O)NC1CCCOC1 (centres undefined) | -9.07%
CC(C)(C)C(=O)NCCc1cc(N2CCOCC2)nc(NC2CC2)n1 | -9.36%
Cc1nonc1CNC(=O)C(C)Oc1cccc(F)c1 (centres undefined) | -8.47%

Compound | cytotoxicity at 70.5 h
c1cnc(Nc2ccc(C3CCCCN3Cc3ccncc3)cn2)nc1 (centres undefined) | -6.32%
O=C(c1cscn1)N1CCc2[nH]nc(Nc3ccccc3)c2C1 | -6.3%
COCCNc1ccc(CC2CCCN(c3ncccn3)C2)nn1 (centres undefined) | -1.21%
Cc1nc(NCc2cccnc2)cc(C2COCCN2)n1 (centres undefined) | -5.63%
Cc1cncc(C2CCN(Cc3ccncc3)CC2)n1 | -7.83%
Cc1ccnc(C2(C)CCCN2S(=O)(=O)c2ccccc2)n1 (centres undefined) | 16.3%
Cc1c(C(=O)N2CCC(C(=O)c3nc4ccccc4s3)CC2)cnn1C | -0.714%
CN(C(=O)c1ccccn1)c1nnc(C2CCOC2)s1 (centres undefined) | -7.71%
COc1cccc([C@@]2(O)CC[C@@H]3CN(C(=O)c4c[nH]nc4C)C[C@@H]32)c1 | -6.08%
Cc1nn(C)c(C)c1-c1ccc(=O)n(C(C)C(=O)NC2CC2)n1 (centres undefined) | 17.4%
Cc1nn(C)c(C)c1-c1ccc(=O)n(C(C)C(=O)NC2CCCC2)n1 (centres undefined) | -5.55%
Cc1nc2cc(-c3nccn3C)nn2c(N2CCCC2)c1C | -0.486%
CCc1cc(O)n2nc(C3CCCN3C(=O)c3ccccn3)cc2n1 (centres undefined) | 17%
COc1cc(CCC(=O)N2CCC(c3cc4ncccc4[nH]3)CC2)on1 | 22%
Cc1cc(N2CCC(O)CC2)nc(C2CCCN2C)n1 (centres undefined) | -5.82%
Cn1ccc2cc(CC3COCCN(C(=O)c4cccnc4)C3)ccc21 (centres undefined) | 11.9%
O=C(Cn1c(=O)n(Cc2ccco2)c2ncccc21)NC1CC1 | -4.4%
CC1CCCCN1c1nc2c(c(=O)[nH]1)CCN(Cc1ccccn1)C2 (centres undefined) | 3.45%
COc1cnc(C2(O)CCN(C(=O)c3ccccn3)CC2)c(OC)n1 | -13.1%
COc1cnc(C2(O)CCN(C(=O)c3scnc3C)CC2)c(OC)n1 | 6.58%
CC(C)c1nccn1-c1cncc(C2CCCN(C3CCCCC3)C2)n1 (centres undefined) | -0.366%
CCc1nccn1-c1cccc(C2CCCN(C3CCCCC3)C2)n1 (centres undefined) | -0.595%
COCC(=O)N1CCN(c2cc(C)nc(C3CCCN3C(C)=O)c2)CC1 (centres undefined) | -0.659%

Compound | cytotoxicity at 70.5 h
Cc1nccn1-c1cccc(C2CCCN(C3CCCC3)C2)n1 (centres undefined) | -4.43%
Cc1cc2cc(C(=O)N3C[C@H](O)[C@]4(CCCO4)C3)ccc2o1 | -2.18%
COc1ccccc1CC(=O)N1CC[C@H](O)[C@]2(CCCO2)C1 | -6.73%
C[C@]1(O)CN(Cc2ncccc2F)CC[C@@H]1Oc1cccc(F)c1 | -5.53%
COc1cc(CN2C[C@H](OC)[C@]3(CCCO3)C2)ccc1F | 19.1%
Cc1cccc(CC2COCCN(Cc3nccn3C)C2)n1 (centres undefined) | -2.76%
CNC(=O)C1CN(C(=O)COc2ccccc2)Cc2cn(C)nc21 (centres undefined) | -3.29%
O=C(c1c[nH]c(=O)[nH]c1=O)N1CCCC(c2cnccn2)C1 (centres undefined) | -2.78%
C[C@]1(O)CN(CCC(N)=O)CC[C@@H]1Oc1cccc(F)c1 | -0.798%
Cc1cncc(C2CCCN(C(=O)c3cn(C)nc3C)C2)n1 (centres undefined) | -3.29%
Cc1csc(C(=O)N2CCCC(c3[nH]ncc3S(C)(=O)=O)C2)c1 (centres undefined) | -0.679%
Cc1cncc(C2CCCN(Cc3ccncc3)C2)n1 (centres undefined) | 13.6%
CCC(CO)NCc1ccc(-c2ccc(Cl)cc2)o1 (centres undefined) | 7.49%
c1nc(N2CCOCC2)sc1-c1cncn1CCCN1CCCCC1 | -4.2%
Cc1nc(N)c2ccc(C3CCCCN3)nc2n1 (centres undefined) | -1.97%
c1nc(N2CCOCC2)ncc1-c1cncn1CCCN1CCCCC1 | -13.7%
NC1CCc2nc(-c3cccnc3)nc(Nc3ccc(F)cc3)c2C1 (centres undefined) | 3.41%
CC(=O)Nc1ccc(Oc2cc(C)nc(C3CCCNC3)c2)cc1 (centres undefined) | -3.03%
Cc1cc(Oc2ccc(NC(=O)C3CC3)cc2)cc(C2CCNCC2)n1 | -4.04%
NCCc1cc(N2CCOCC2)nc(NC2CC2)n1 | -8.21%
Cn1ccnc1CNC(=O)c1cncc(C2CCNCC2)n1 | -5.18%
COc1ccccc1C(=O)N1CCCC1c1ncc2c(n1)CCNC2 (centres undefined) | -2.07%
